Test results: patent US9994594B2, “Inhibitors of arginase and their therapeutic applications” (MARS, INCORPORATED, priority 2010, dated 2018)
pIC50: −log10 of the molar value. Counter-ions that a name gives are not always drawn. Like-named read-outs stand apart in the source and are kept apart here.

Key:
human arginase I (ARG I) = target: T1, human arginase I (ARG I) (Homo sapiens, UniProt P05089); assay: Inhibition of arginase I, spectrophotometric urea assay at 530 nm; type: biochemical; details: read-out: Potency (ARG I)
T1 sequence (P05089 1-322): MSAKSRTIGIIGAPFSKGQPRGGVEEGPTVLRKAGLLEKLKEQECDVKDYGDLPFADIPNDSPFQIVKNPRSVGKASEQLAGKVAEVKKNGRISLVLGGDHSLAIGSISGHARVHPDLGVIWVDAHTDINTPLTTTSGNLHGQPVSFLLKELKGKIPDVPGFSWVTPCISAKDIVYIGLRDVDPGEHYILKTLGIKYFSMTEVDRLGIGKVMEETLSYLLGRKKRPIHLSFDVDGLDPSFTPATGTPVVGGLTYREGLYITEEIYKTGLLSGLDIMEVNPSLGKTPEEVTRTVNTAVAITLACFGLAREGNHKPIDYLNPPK
Description: (§1) The assay established the concentration of inhibitor that is required to reduce arginase activity by 50% (IC50).
(§2) Inhibition of arginase I (ARG I) and arginase II (ARG II) by Formula I and Formula II compounds is followed spectrophotometrically at 530 nm. The compound to be tested is dissolved in DMSO at an initial concentration 50-fold greater than its final concentration in the cuvette. 10 μl of the stock solution is diluted in 90 μl of the assay buffer that comprises 0.1M sodium phosphate buffer containing 130 mM NaCl, pH 7.4, to which is added ovalbumin (OVA) at a concentration of 1 mg/ml. Solutions of arginase I and II are prepared in 100 mM sodium phosphate buffer, pH 7.4 containing 1 mg/ml of OVA to give an arginase stock solution at a final concentration of 100 ng/ml.
(§3) To each well of a 96-well microtiter plate is add 40 μl of enzyme, 10 μl of an inventive compound and 10 μl of enzyme substrate (L-arginine+manganese sulfate). For wells that are used as positive controls, only the enzyme and its substrate are added, while wells used as negative controls contain only manganese sulfate.
(§4) After incubating the microtiter plate at 37° C. for 60 minutes, 150 μl of a urea reagent obtained by combining equal proportions (1:1) of reagents A and B is added to each well of the microtiter plate to stop the reaction. The urea reagent is made just before use by combining Reagent A (10 mM o-phthaldialdehyde, and 0.4% polyoxyethylene (23) lauryl ether (w/v) in 1.8 M sulfuric acid) with Reagent B (1.3 mM primaquine diphosphate, 0.4% polyoxyethylene (23) lauryl ether (w/v), 130 mM boric acid in 3.6 M sulfuric acid). After quenching the reaction mixture, the microtiter plate is allowed to stand for an additional 10 minutes at room temperature to allow color development. The inhibition of arginase is computed by measuring the optical density (OD) of the reaction mixture at 530 nm and normalizing the OD value to percent inhibition observed in the control. The normalized OD is then used to generate a dose-response curve by plotting the normalized OD values against log [concentration] and using regression analysis to compute the IC50 values.

arginase II (ARG II) = target: T2, arginase II (ARG II) (Homo sapiens, UniProt P78540); assay: Inhibition of arginase II, spectrophotometric urea assay at 530 nm; type: biochemical
T2 sequence (P78540 23-354): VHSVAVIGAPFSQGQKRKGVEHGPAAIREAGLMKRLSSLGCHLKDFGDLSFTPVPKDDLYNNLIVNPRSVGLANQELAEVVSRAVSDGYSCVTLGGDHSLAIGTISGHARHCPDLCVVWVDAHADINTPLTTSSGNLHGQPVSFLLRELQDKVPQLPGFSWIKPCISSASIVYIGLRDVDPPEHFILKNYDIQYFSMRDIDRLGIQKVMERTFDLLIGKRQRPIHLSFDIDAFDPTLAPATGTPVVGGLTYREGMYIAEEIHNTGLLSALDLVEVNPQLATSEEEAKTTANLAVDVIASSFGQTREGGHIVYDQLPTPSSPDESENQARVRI
Description: as §1, §2, §3, §4

[1] = Formula I compounds, Table 2, read-out: Potency (ARG II)
[2] = Formula II compounds, Table 2-A
[3] = Formula II compounds, Table 2-A, read-out: Potency (ARG)

Row | Compound | pIC50 (human arginase I (ARG I); Formula I compounds, Table 2) | pIC50 (arginase II (ARG II); [1]) | pIC50 (human arginase I (ARG I); [2]) | pIC50 (arginase II (ARG II); [3])
1 | NC(CCCCB(O)O)(C(=O)O)[C@H]1C[C@@H](NCc2cc3c(cc2Cl)OCO3)C1 (stereo partly drawn) [Example 78-A, cis-2-amino-6-borono-2-(3-((6-chlorobenzo[d][1,3]dioxol-5-yl)methylamino)cyclobutyl)hexanoic acid dihydrochloride] | – | – | 6.60 to 10.00 | 6.60 to 10.00
2 | COc1ccc(CCN(C)CC[C@](N)(CCCCB(O)O)C(=O)O)cc1OC [compound 6, (R)-2-amino-6-borono-2-(2-((3,4-dimethoxyphenethyl)(methyl)amino)ethyl)hexanoic acid dihydrochloride] | 6.00 to 6.60 | 5.70 to 6.00 | – | –
3 | NC(CCCCB(O)O)(C(=O)O)C1CCN(C(=O)Nc2ccc(Cl)c(Cl)c2)CC1 (stereo not shown) [Example 42-A, 2-amino-6-borono-2-(1-(3,4-dichlorophenylcarbamoyl)piperidin-4-yl)hexanoic acid] | – | – | 6.00 to 6.60 | 5.70 to 6.00
4 | NC(CCCCB(O)O)(C(=O)O)C1CCN(CCc2ccc(Cl)cc2Cl)CC1 (stereo not shown) [Example 47-A, 2-amino-6-borono-2-(1-(2,4-dichlorophenethyl)piperidin-4-yl)hexanoic acid] | – | – | 6.60 to 10.00 | 6.00 to 6.60
5 | N[C@H]1CC[C@@H]([C@@](N)(CCCCB(O)O)C(=O)O)C1 [17-A, (S)-2-amino-2-((1R,3S)-3-aminocyclopentyl)-6-boronohexanoic acid dihydrochloride] | – | – | 6.60 to 10.00 | 6.60 to 10.00
6 | NC(CCCCB(O)O)(C(=O)O)C1CCN(Cc2ccc3ccccc3c2)CC1 (stereo not shown) [Example 99-A, 2-amino-6-borono-2-(1-(naphthalen-2-ylmethyl)piperidin-4-yl)hexanoic acid dihydrochloride] | – | – | 6.60 to 10.00 | 6.60 to 10.00
7 | N[C@](CCCCB(O)O)(CCN1CCC[C@H](O)C1)C(=O)O [compound 5, (R)-2-amino-6-borono-2-(2-((S)-3-hydroxypiperidin-1-yl)ethyl)hexanoic acid dihydrochloride] | 5.70 to 6.00 | 5.30 to 5.70 | – | –
8 | Cc1cc(CN2CCC(C(N)(CCCCB(O)O)C(=O)O)CC2)n(C)n1 (stereo not shown) [Example 62-A, 2-amino-6-borono-2-(1-((1,3-dimethyl-1H-pyrazol-5-yl)methyl)piperidin-4-yl)hexanoic acid dihydrochloride] | – | – | 6.00 to 6.60 | 6.00 to 6.60
9 | N[C@](CCCCB(O)O)(CCN1CCC(CCO)CC1)C(=O)O [compound 9, (R)-2-amino-6-borono-2-(2-(4-(2-hydroxyethyl)piperidin-1-yl)ethyl)hexanoic acid dihydrochloride] | 6.60 to 10.00 | 6.00 to 6.60 | – | –
10 | COc1cc2c(cc1OC)CN(CCC(N)(CCCCB(O)O)C(=O)O)CC2 (stereo not shown) [compound 26, 2-Amino-6-borono-2-[2-(6,7-dimethoxy-3,4-dihydro-1H-isoquinolin-2-yl)ethyl]-hexanoic acid dihydrochloride] | 6.00 to 6.60 | 6.00 to 6.60 | – | –
11 | NC(CCCCB(O)O)(C(=O)O)C1CCN(Cc2cccc3cccnc23)CC1 (stereo not shown) [Example 56-A, 2-amino-6-borono-2-(1-(quinolin-8-ylmethyl)piperidin-4-yl)hexanoic acid dihydrochloride] | – | – | 6.60 to 10.00 | 6.00 to 6.60
12 | COC[C@H]1CCCN1CC[C@](N)(CCCCB(O)O)C(=O)O [compound 3, (R)-2-amino-6-borono-2-(2-((R)-2-(methoxymethyl)pyrrolidin-1-yl)ethyl)hexanoic acid dihydrochloride] | 5.70 to 6.00 | 5.70 to 6.00 | – | –
13 | NC(CCCCB(O)O)(C(=O)O)C1CCN(CCCc2ccc(Cl)cc2)CC1 (stereo not shown) [Example 46-A, 2-amino-6-borono-2-(1-(3-(4-chlorophenyl)propyl)piperidin-4-yl)hexanoic acid] | – | – | 6.60 to 10.00 | 6.60 to 10.00
14 | NC(CCCCB(O)O)(CCN1CCNCC1)C(=O)O (stereo not shown) [compound 32, 2-amino-6-borono-2-(2-(piperazin-1-yl)ethyl)hexanoic acid trihydrochloride] | – | 5.30 to 5.70 | – | –
15 | NC(CCCCB(O)O)(CCN1CCOCC1)C(=O)O (stereo not shown) [compound 24, 2-amino-6-borono-2-(2-morpholinoethyl)hexanoic acid] | – | 5.30 to 5.70 | – | –

Second part, the compound after the results:

Row | pIC50 (human arginase I (ARG I); Formula I compounds, Table 2) | pIC50 (arginase II (ARG II); [1]) | pIC50 (human arginase I (ARG I); [2]) | pIC50 (arginase II (ARG II); [3]) | Compound
16 | 5.30 to 5.70 | < 5.30 | – | – | CN1CCN(CC(N)(CCCCB(O)O)C(=O)O)CC1 (stereo not shown) [compound 80, 2-amino-6-borono-2-((4-methylpiperazin-1-yl)methyl) hexanoic acid trihydrochloride]
17 | 6.00 to 6.60 | 6.00 to 6.60 | – | – | NC(CCCCB(O)O)(CCN1CCC(Cc2ccc(C(F)(F)F)cc2)CC1)C(=O)O (stereo not shown) [compound 126, 2-amino-6-borono-2-(2-(4-(4-(trifluoromethyl)benzyl)piperidine-1-yl)ethyl)hexanoic acid dihydrochloride]
18 | 5.70 to 6.00 | 5.30 to 5.70 | – | – | NC(CCCCB(O)O)(CCN1CC(O)C1)C(=O)O (stereo not shown) [compound 59, 2-amino-6-borono-2-(2-(3-hydroxyazetidin-1-yl)ethyl)hexanoic acid dihydrochloride]
19 | 5.30 to 5.70 | < 5.30 | – | – | CC(C)Oc1ccc(CN(C)CCC(N)(CCCCB(O)O)C(=O)O)cc1 (stereo not shown) [compound 74, 2-amino-6-borono-2-(2-((4-isopropoxybenzyl)(methyl)amino)ethyl)hexanoic acid dihydrochloride]
20 | 6.00 to 6.60 | 5.30 to 5.70 | – | – | CC(CC(N)(CCCCB(O)O)C(=O)O)N1CCC(Cc2ccccc2)CC1 (stereo not shown) [compound 124, 2-amino-2-(2-(4-benzylpiperidin-1-yl)propyl)-6-boronohexanoic acid dihydrochloride]
21 | – | < 5.30 | – | – | CC(C)C(N)(CCCCB(O)O)C(=O)O (stereo not shown) [compound 105, 2-amino-6-borono-2-isopropylhexanoic acid hydrochloride]
22 | – | < 5.30 | – | – | CC(C)CC(N)(CCCCB(O)O)C(=O)O (stereo not shown) [compound 104, 2-amino-6-borono-2-isobutylhexanoic acid hydrochloride]
23 | 5.30 to 5.70 | – | – | – | NC(CCCO)(CCCCB(O)O)C(=O)O (stereo not shown) [compound 101, 2-amino-6-borono-2-(3-hydroxypropyl)hexanoic acid hydrochloride]
24 | 6.00 to 6.60 | – | – | – | NC(CCCCB(O)O)(CCC1Cc2ccccc2CN1)C(=O)O (stereo not shown) [compound 131, 2-amino-6-borono-2-(2-(1,2,3,4-tetrahydroisoquinolin-3-yl)ethyl)hexanoic acid dihydrochloride]
25 | – | < 5.30 | – | – | O=C(O)C1(CCCCB(O)O)CCCN1 (stereo not shown) [compound 103, 2-(4-boronobutyl)pyrrolidine-2-carboxylic acid hydrochloride]
26 | – | < 5.30 | – | – | NC(CCCCB(O)O)(Cc1ccccc1)C(=O)O (stereo not shown) [compound 99, 2-amino-2-benzyl-6-boronohexanoic acid hydrochloride]
27 | – | < 5.30 | – | – | NC(CCCCB(O)O)(CN1CCOCC1)C(=O)O (stereo not shown) [compound 81, 2-amino-6-borono-2-(morpholinomethyl)hexanoic acid dihydrochloride]
28 | – | < 5.30 | – | – | COCCCC(N)(CCCCB(O)O)C(=O)O (stereo not shown) [compound 100, 2-amino-6-borono-2-(3-methoxypropyl)hexanoic acid hydrochloride]
29 | – | 5.30 to 5.70 | – | – | NC(CO)(CCCCB(O)O)C(=O)O (stereo not shown) [compound 82, 2-amino-6-borono-2-(hydroxymethyl)hexanoic acid hydrochloride]
30 | – | 5.30 to 5.70 | – | – | CN1CCN(CCC(N)(CCCCB(O)O)C(=O)O)CC1 (stereo not shown) [compound 35, 2-amino-6-borono-2-(2-(4-methylpiperazin-1-yl)ethyl)hexanoic acid trihydrochloride]
31 | – | < 5.30 | – | – | NC(CCCCB(O)O)(Cc1cccc(F)c1)C(=O)O (stereo not shown) [compound 98, 2-amino-6-borono-2-(3-fluorobenzyl)hexanoic acid hydrochloride]
